In patent publication US20240041042A1, “1-(PYRIDYL)-5-AZINYLPYRAZOLE DERIVATIVES, AND THEIR USE FOR CONTROL OF UNDESIRED PLANT GROWTH” (Bayer Aktiengesellschaft, priority 2020, published 2024):
Like-named read-outs stand apart in the source and are kept apart here.

What was measured:
Format in all cases: in vivo
[1] = system: Amaranthus retroflexus (AMARE); experiment: Pre-emergence herbicidal action against AMARE; conditions: visual scoring after about 3 weeks vs untreated controls
Procedure, shortened: (§1)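 Pre-emergence soil-surface spray of compound, formulated as wettable powder or emulsion concentrate, in aqueous suspension or emulsion with 0.5% additive (600 l/ha; rate 320 g/ha or less). Activity rated visually after roughly 3 weeks in the greenhouse as a percentage of untreated controls, 0% meaning no difference.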

[2] = system: Digitaria sanguinalis (DIGSA); experiment: Pre-emergence herbicidal action against DIGSA
Procedure, shortened: as §1

[3] = system: Echinochloa crus-galli (ECHCG); experiment: Pre-emergence herbicidal action against ECHCG; conditions: dosage 320 g/ha
Procedure, shortened: as §1

[4] = system: Lolium rigidum (LOLRI); experiment: Pre-emergence herbicidal action against LOLRI
Procedure, shortened: as §1

[5] = system: Matricaria inodora (MATIN); experiment: Pre-emergence herbicidal action against MATIN
Procedure, shortened: as §1

[6] = system: Pharbitis purpurea (PHBPU); experiment: Pre-emergence herbicidal action against PHBPU; conditions: dosage 320 g/ha
Procedure, shortened: as §1

[7] = system: Setaria viridis (SETVI); experiment: Pre-emergence herbicidal action against SETVI
Procedure, shortened: as §1

[8] = system: Viola tricolor (VIOTR); experiment: Pre-emergence herbicidal action against VIOTR
Procedure, shortened: as §1

[9] = system: Brassica napus (BRSNW); conditions: 80 g/ha, crop plant compatibility, in comparison to untreated controls
Procedure, shortened: (§2)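 Scoring: visual, % of untreated control, about 3 weeks after a pre-emergence application to the soil surface. Application used WP or EC formulations diluted in water with 0.5% additive at 600 l/ha; dosage levels are marked by suffixes a, b and c.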

[10] = system: Zea mays (ZEAMX); conditions: pre-emergence, crop plant compatibility, in comparison to untreated controls
Procedure, shortened: as §2

[11] = system: Alopecurus myosuroides (ALOMY); experiment: Post-emergence herbicidal action against ALOMY; conditions: visual rating about 3 weeks after treatment vs untreated controls (100% = plants have died, 0% = like control plants)
Procedure, shortened: (§3)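 Greenhouse plants sprayed at the one-leaf stage, 2–3 weeks after sowing, with WP or EC formulations plus 0.5% additive at 600 l/ha water. Activity rated visually after about 3 weeks versus untreated controls (100% = dead, 0% = like control), at 320 g/ha or lower.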

[12] = system: Amaranthus retroflexus (AMARE); experiment: Post-emergence herbicidal action against AMARE
Procedure, shortened: as §3

[13] = system: Digitaria sanguinalis (DIGSA); experiment: Post-emergence herbicidal action against DIGSA; conditions: 320 g/ha, visual rating about 3 weeks after treatment
Procedure, shortened: as §3

[14] = system: Echinochloa crus-galli (ECHCG); experiment: Post-emergence herbicidal action against ECHCG
Procedure, shortened: as §3

[15] = system: Lolium rigidum (LOLRI); experiment: Post-emergence herbicidal action against LOLRI
Procedure, shortened: as §3

[16] = system: Matricaria inodora (MATIN); experiment: Post-emergence herbicidal action against MATIN; conditions: dosage 320 g/ha
Procedure, shortened: as §3

[17] = system: Pharbitis purpurea (PHBPU); experiment: Post-emergence herbicidal action against PHBPU
Procedure, shortened: as §3

[18] = system: Setaria viridis (SETVI); experiment: Post-emergence herbicidal action against SETVI; conditions: dosage 320 g/ha
Procedure, shortened: as §3

[19] = system: Verconica persica (VERPE); experiment: Post-emergence herbicidal action against VERPE
Procedure, shortened: as §3

[20] = system: Viola tricolor (VIOTR); experiment: Post-emergence herbicidal action against VIOTR
Procedure, shortened: as §3

[21] = system: Alopecurus myosuroides (ALOMY); experiment: Pre-emergence herbicidal action against ALOMY; conditions: scored visually after about 3 weeks, 100% = plants have died
Procedure, shortened: as §1

[22] = system: Avena fatua (AVEFA); experiment: Pre-emergence herbicidal action against AVEFA; conditions: visual scoring after about 3 weeks vs untreated controls
Procedure, shortened: as §1

[23] = system: Verconica persica (VERPE); experiment: Pre-emergence herbicidal action against VERPE
Procedure, shortened: as §1

[24] = system: Avena fatua (AVEFA); experiment: Post-emergence herbicidal action against AVEFA; conditions: visual rating about 3 weeks after treatment
Procedure, shortened: as §3

[25] = system: Oryza sativa (ORYSA); conditions: crop plant compatibility
Procedure, shortened: (§4)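 Foliar application at the one-leaf stage: WP/EC formulation, 0.5% additive, 600 l/ha water. Greenhouse-grown in sandy loam. Endpoint is visual % injury relative to untreated controls at about 3 weeks.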

[26] = system: Zea mays (ZEAMX); conditions: for Post-emergence action against ZEAMX in % (crop plant compatibility): 20 g/ha, effect in comparison to untreated controls; for Post-emergence action against ZEAMX in %: crop plant compatibility, 80 g/ha, effect vs untreated controls
Procedure, shortened: as §4

[27] = system: Polygonum convolvulus (POLCO); experiment: Pre-emergence herbicidal action against POLCO
Procedure, shortened: as §1

[28] = system: Oryza sativa (ORYSA); conditions: pre-emergence, 80 g/ha, crop plant compatibility, in comparison to untreated controls
Procedure, shortened: as §2

[29] = system: Polygonum convolvulus (POLCO); experiment: Post-emergence herbicidal action against POLCO; conditions: dosage 320 g/ha
Procedure, shortened: as §3

[30] = system: Triticum aestivum (TRZAS); conditions: crop plant compatibility, effect vs untreated controls
Procedure, shortened: as §4

[31] = 320 g/ha, visual rating about 3 weeks after treatment
[32] = 20 g/ha, effect vs untreated controls
[33] = 80 g/ha, effect in comparison to untreated controls
[34] = 80 g/ha, visual rating about 3 weeks after treatment vs untreated controls (100% = plants have died, 0% = like control plants)

SMILES	Pre-emergence action against AMARE in % ([1]; 320 g/ha)	Pre-emergence action against ECHCG in % [3]	Pre-emergence action against LOLRI in % ([4]; dosage 320 g/ha)	Pre-emergence action against MATIN in % ([5]; dosage 320 g/ha)	Pre-emergence action against SETVI in % ([7]; dosage 320 g/ha)	Pre-emergence action against VIOTR in % ([8]; 320 g/ha, Viola tricolor)	Pre-emergence action against BRSNW in % [9]	Pre-emergence action against ZEAMX in % ([10]; 80 g/ha)	Post-emergence action against ALOMY in % ([11]; 80 g/ha)	Post-emergence action against AMARE in % [12, 31]	Post-emergence action against ECHCG in % ([14]; dosage 80 g/ha)	Post-emergence action against ECHCG in % ([14]; dosage 320 g/ha)	Post-emergence action against LOLRI in % ([15]; dosage 80 g/ha)	Post-emergence action against PHBPU in % ([17]; dosage 320 g/ha)	Post-emergence action against SETVI in % [18]	Pre-emergence action against ALOMY ([21]; 320 g/ha)	Pre-emergence action against AVEFA in % ([22]; 320 g/ha)	Pre-emergence action against VERPE in % ([23]; dosage 320 g/ha)	Post-emergence action against ORYSA in % [25, 33]	Post-emergence action against ZEAMX in % [26]	other results
COC(=O)COc1nn(-c2nc(F)ccc2F)c(-c2ccc(F)nc2)c1C1CC1 [Example I-300]	90%	90%	90%	80%	90%	90%	20%	10%	80%	80%	80%	90%	90%	80%	80%						Pre-emergence action against DIGSA in % ([2]; 80 g/ha, visual scoring after about 3 weeks vs untreated controls): 90%; Pre-emergence action against DIGSA in % ([2]; dosage 320 g/ha): 100%; Pre-emergence action against LOLRI in % ([4]; dosage 80 g/ha): 80%; Pre-emergence action against PHBPU in % [6]: 80%; Post-emergence action against ALOMY in % ([11]; 320 g/ha): 90%; Post-emergence action against DIGSA in % [13]: 80%; Post-emergence action against LOLRI in % ([15]; dosage 320 g/ha): 90%; Post-emergence action against MATIN in % [16]: 80%; Post-emergence action against VERPE in % ([19]; 320 g/ha, VERPE): 80%; Post-emergence action against VIOTR in % ([20]; 80 g/ha): 80%; Post-emergence action against VIOTR in % ([20]; 320 g/ha): 90%
CCOC(=O)C(C)Oc1nn(-c2ccccn2)c(-c2ccc(F)nc2)c1I (stereo not drawn) [Example I-101]	100%	90%	100%		100%	100%	10%		90%				90%			100%	90%	100%	10%	10%	Pre-emergence action against SETVI in % ([7]; dosage 80 g/ha): 90%; Pre-emergence action against VIOTR in % ([8]; dosage 80 g/ha): 80%; Post-emergence action against AVEFA in % ([24]; 80 g/ha): 80%; Post-emergence action against VIOTR in % ([20]; 80 g/ha): 80%; Post-emergence action against ORYSA in % [25, 32]: 0%; Post-emergence action against ZEAMX in % (crop plant compatibility) [26]: 10%
Cc1cccc(-n2nc(OCC(=O)O)c(Cl)c2-c2ccc(F)nc2)n1 [Example I-351]	80%	90%		80%	100%		20%			80%		80%		80%	80%		80%	80%	0%	10%	Pre-emergence action against POLCO in % ([27]; dosage 80 g/ha): 80%; Pre-emergence action against POLCO in % ([27]; dosage 320 g/ha): 80%; Pre-emergence action against ORYSA in % [28]: 20%; Post-emergence action against AMARE in % [12, 34]: 80%; Post-emergence action against LOLRI in % ([15]; dosage 320 g/ha): 80%; Post-emergence action against POLCO in % [29]: 80%; Post-emergence action against VERPE in % ([19]; 320 g/ha, VERPE): 80%; Post-emergence action against TRZAS in % ([30]; 80 g/ha): 0%; Post-emergence action against TRZAS in % ([30]; 320 g/ha): 10%
COC(=O)CNC(=O)COc1nn(-c2ccccn2)c(-c2ccc(F)nc2)c1F [Example I-377]	90%			90%	90%		0%	0%		90%	80%	90%		90%	90%	80%		80%	0%	0%	Pre-emergence action against AMARE in % ([1]; 80 g/ha): 80%; Pre-emergence action against MATIN in % ([5]; dosage 80 g/ha): 80%; Pre-emergence action against ZEAMX in % ([10]; 320 g/ha): 0%; Post-emergence action against AMARE in % [12, 34]: 80%; Post-emergence action against POLCO in % [29]: 80%; Post-emergence action against VERPE in % ([19]; 320 g/ha, VERPE): 80%; Post-emergence action against TRZAS in % ([30]; 80 g/ha): 0%
COC(=O)[C@@H](C)Oc1nn(-c2ncccc2Cl)c(-c2ccc(F)nc2)c1Br [Example I-24]	100%	100%	100%	90%	90%	100%	20%	10%	90%		80%		90%			100%	100%	100%	10%	20%	Pre-emergence action against ALOMY ([21]; 80 g/ha): 100%; Pre-emergence action against AMARE in % ([1]; 80 g/ha): 90%; Pre-emergence action against POLCO in % ([27]; dosage 80 g/ha): 90%; Pre-emergence action against POLCO in % ([27]; dosage 320 g/ha): 90%; Pre-emergence action against VERPE in % ([23]; dosage 80 g/ha): 80%; Pre-emergence action against VIOTR in % ([8]; dosage 80 g/ha): 90%; Post-emergence action against AVEFA in % ([24]; 80 g/ha): 90%; Post-emergence action against ORYSA in % [25, 32]: 0%; Post-emergence action against ZEAMX in % (crop plant compatibility) [26]: 10%
COC(=O)CCOC(=O)[C@@H](C)Oc1nn(-c2ccccn2)c(-c2ccc(Cl)nc2)c1Cl [Example I-245]	80%		90%			80%	0%	0%		80%				90%		90%			0%		Pre-emergence action against DIGSA in % ([2]; dosage 320 g/ha): 90%; Post-emergence action against ALOMY in % ([11]; 320 g/ha): 80%; Post-emergence action against AVEFA in % ([24]; 320 g/ha): 80%; Post-emergence action against PHBPU in % ([17]; dosage 80 g/ha): 80%; Post-emergence action against POLCO in % [29]: 80%; Post-emergence action against VIOTR in % ([20]; 320 g/ha): 80%
C[C@@H](Oc1nn(-c2ncccc2Cl)c(-c2ccc(F)nc2)c1Br)C(=O)O [Example I-25]	100%	90%	100%	90%	100%	100%	10%	10%	90%				80%			90%	100%	90%	10%	20%	Pre-emergence action against ALOMY ([21]; 80 g/ha): 80%; Pre-emergence action against AMARE in % ([1]; 80 g/ha): 90%; Pre-emergence action against AVEFA in % ([22]; 80 g/ha): 90%; Pre-emergence action against POLCO in % ([27]; dosage 80 g/ha): 80%; Pre-emergence action against POLCO in % ([27]; dosage 320 g/ha): 90%; Pre-emergence action against VIOTR in % ([8]; dosage 80 g/ha): 100%; Post-emergence action against AVEFA in % ([24]; 80 g/ha): 90%; Post-emergence action against VERPE in % ([19]; dosage 80 g/ha): 80%; Post-emergence action against ORYSA in % [25, 32]: 0%; Post-emergence action against ZEAMX in % (crop plant compatibility) [26]: 10%
